In the SangsterLogP compilation:

Row | SMILES | logP
1 | Cc1ccc2c(c1)C(NC(=O)CN1CCCCC1)CO2 (stereo not drawn) | 2.78
2 | COc1ccc2c(c1)OCC2NC(=O)CN1CCOCC1 (stereo not drawn) | 0.92
3 | O=C(CN1CCCCC1)NC1COc2ccccc21 (stereo not drawn) | 2.3
4 | O=C(CN1CCOCC1)NC1COc2ccccc21 (stereo not drawn) | 0.81
5 | O=C(CN1CCCCC1)NC1COc2ccc(Cl)cc21 (stereo not drawn) | 3.01
6 | O=C(CN1CCCC1)NC1COc2ccc(Cl)cc21 (stereo not drawn) | 2.47
7 | COc1ccc2c(c1)OCC2NC(=O)CN1CCCCC1 (stereo not drawn) | 2.41
8 | O=C(CN1CCCC1)NC1COc2ccccc21 (stereo not drawn) | 1.76
9 | O=C(CN1CCOCC1)NC1COc2ccc(Cl)cc21 (stereo not drawn) | 1.55
10 | CCCCN(CCCC)CC(=O)NC1COc2cc(OC)ccc21 (stereo not drawn) | 4.24
11 | CCCCN(CCCC)CC(=O)NC1COc2ccccc21 (stereo not drawn) | 4.15

Next, values leading:

Row | logP | SMILES
12 | 2.88 | CCN(CC)CC(=O)NC1COc2ccc(Cl)cc21 (stereo not drawn)
13 | 1.38 | Cc1ccc2c(c1)C(NC(=O)CN1CCOCC1)CO2 (stereo not drawn)
14 | 2.24 | Cc1ccc2c(c1)C(NC(=O)CN1CCCC1)CO2 (stereo not drawn)
15 | 4.43 | CCCCN(CCCC)CC(=O)NC1COc2ccc(C)cc21 (stereo not drawn)
16 | 2.2 | CCN(CC)CC(=O)NC1COc2ccccc21 (stereo not drawn)
17 | 2.69 | CCN(CC)CC(=O)NC1COc2ccc(C)cc21 (stereo not drawn)
18 | 4.44 | CCCCN(CCCC)CC(=O)NC1COc2ccc(Cl)cc21 (stereo not drawn)
